According to article PMC8975272, “Novel glucagon-like peptide-1 analogue exhibits potency-driven G-protein biased agonism with promising effects on diabetes and diabetic dry eye syndrome” (Bioengineered, 2022):

Tests used:
db/db mice = assay: Chronic administration study in db/db mice; format: in vivo, mouse
Experimental: The diabetic db/db mice (half male and half female, 8–12 weeks, body weight- 40-50 g) were brought from Cavens Company Ltd. (Changzhou) and housed in individual ventilated cages with free access to food and water and maintained on a 12-hour light/dark cycle. Animals were acclimatized for 3 days. On day 0, each animal was weighed using a digital weighing balance. Blood was collected by retro-orbital plexus puncture. Blood glucose level was measured using a hand-held blood glucose meter (Johnson & Johnson) and %HbA1c was measured using auto fluorescence immunoanalyzer.
Animals were divided into treatment groups (n = 8 per group; 4 male, 4 female) with matched baseline %HbA1c levels (mean 7.3%). Vehicle, SM102 (1, 3 and 9 nmol/kg), Semaglutide (15 nmol/kg) were subcutaneously injected into the neck region of the animals on every other day for 4 weeks.
Body weight and food intake were monitored serially. On day 29 of the study, 24 h following the last dose, blood was collected for measurement of %HbA1c, triglycerides, insulin, C-peptide and glucagon. The function of β-cell was assessed via calculating the […] from blood concentrations of glucose and insulin.

INS-1 832/3 cells = assay: Insulin release after overnight incubation, INS-1 832/3 cells; format: cell-based; conditions: 16 h (overnight), range of concentrations, 11 mM glucose, HTRF
Experimental: Mouse islets (10/well) were incubated in triplicate for each condition and treatment. Islets were preincubated for 1 hour in 3 mM glucose KRH buffer prior to secretion assay (30 min) in 3 mM or 11 mM glucose with vehicle or 100 nM SM102 or Semaglutide. The secretion medium was then collected to measure the insulin and proinsulin concentrations using an insulin HTRF kit (Cisbio Bioassays). INS-1 832/3 cells were treated with the indicated concentrations of SM102 or Semaglutide for 16 h in complete RPMI1640 medium at 11 mM glucose. A sample of supernatant was collected and analyzed for insulin content by HTRF.

## CC[C@H](C)[C@H](NC(=O)[C@H](Cc1ccccc1)NC(=O)[C@H](CCC(=O)O)NC(=O)[C@H](CCCCNC(=O)COCCOCCNC(=O)C(C)(C)NC(=O)CC[C@H](NC(=O)CCCCCCCCCCCCCCCCC(=O)O)C(=O)O)NC(=O)[C@H](C)NC(=O)[C@H](C)NC(=O)[C@H](CCC(N)=O)NC(=O)CNC(=O)[C@H](CCC(=O)O)NC(=O)[C@H](CC(C)C)NC(=O)[C@H](Cc1ccc(O)cc1)NC(=O)[C@H](CO)NC(=O)[C@H](CO)NC(=O)[C@@H](NC(=O)[C@H](CC(=O)O)NC(=O)[C@H](CO)NC(=O)[C@@H](NC(=O)[C@H](Cc1ccccc1)NC(=O)[C@@H](NC(=O)CNC(=O)[C@H](CCC(=O)O)NC(=O)C(C)(C)NC(=O)[C@@H](N)Cc1c[nH]cn1)[C@@H](C)O)[C@@H](C)O)C(C)C)C(=O)N[C@@H](C)C(=O)N[C@@H](Cc1c[nH]c2ccccc12)C(=O)N[C@@H](CC(C)C)C(=O)N[C@H](C(=O)N[C@@H](CCCNC(=N)N)C(=O)NCC(=O)N[C@@H](CCCNC(=N)N)C(=O)NCC(=O)N[C@@H](CC(C)C)C(N)=O)C(C)C [SM102]
db/db mice; SM102 1 nmol/kg, 4 weeks of treatment
  improvement in blood glucose and insulin secretion vs Semaglutide 15 nmol/kg: comparable to Semaglutide
db/db mice; SM102 3 nmol/kg s.c. every other day, 28 days
  therapeutic effect vs Semaglutide 15 nmol/kg: comparable
db/db mice; SM102 9 nmol/kg s.c. every other day, 28 days
  therapeutic effect vs Semaglutide 15 nmol/kg: weight loss, glucose, HOMA-IR: superior
INS-1 832/3 cells
  insulin release responses, SM102 vs Semaglutide: virtually indistinguishable
